Test results taken from ChEMBL document CHEMBL3044623, “Feeding cessation effects of chlorantraniliprole, a new anthranilic diamide insecticide, in comparison with several insecticides in distinct chemical classes and mode-of-action groups” (2009).

Columns and labels:
Plutella xylostella [1] = assay: Antifeedant activity against third-instar larval stage of Plutella xylostella (diamondback moth) infested compound-treated leaf assessed as time required to stop feeding at 244 mg a.i/L after 48 hr by leaf disk assay (reference value: > 2880 min); format: functional
Trichoplusia ni [2] = assay: Antifeedant activity against third-instar larval stage of Trichoplusia ni (cabbage looper) infested compound-treated leaf assessed as time required to stop feeding at 244 mg a.i/L after 48 hr by leaf disk assay (reference value: > 2880 min); format: functional
Spodoptera exigua [3] = assay: Antifeedant activity against third-instar larval stage of Spodoptera exigua infested compound-treated leaf assessed as time required to stop feeding at 244 mg a.i/L after 48 hr by leaf disk assay (reference value: > 2880 min); format: functional
Spodoptera exigua [4] = assay: Antifeedant activity against third-instar larval stage of Spodoptera exigua infested compound-treated leaf assessed as reduction in feeding damage at 244 mg a.i/L after 48 hr by leaf disk assay relative to untreated control; format: functional; parameters: scale not given: the % may be the effect or the level left
Plutella xylostella [5] = assay: Antifeedant activity against third-instar larval stage of Plutella xylostella (diamondback moth) infested compound-treated leaf assessed as reduction in feeding damage at 244 mg a.i/L after 48 hr by leaf disk assay relative to untreated control; format: functional; parameters: scale not given: the % may be the effect or the level left
Trichoplusia ni [6] = assay: Antifeedant activity against third-instar larval stage of Trichoplusia ni (cabbage looper) infested compound-treated leaf assessed as reduction in feeding damage at 244 mg a.i/L after 48 hr by leaf disk assay relative to untreated control; format: functional; parameters: scale not given: the % may be the effect or the level left
Helicoverpa zea [7] = assay: Antifeedant activity against third-instar larval stage of Helicoverpa zea (corn earworm) infested compound-treated leaf assessed as time required to stop feeding at 244 mg a.i/L after 48 hr by leaf disk assay (reference value: > 2880 min); format: functional
Helicoverpa zea [8] = assay: Antifeedant activity against third-instar larval stage of Helicoverpa zea (corn earworm) infested compound-treated leaf assessed as reduction in feeding damage at 244 mg a.i/L after 48 hr by leaf disk assay relative to untreated control; format: functional; parameters: scale not given: the % may be the effect or the level left
Spodoptera exigua [9] = assay: Antifeedant activity against third-instar larval stage of Spodoptera exigua infested compound-treated leaf assessed as reduction in feeding damage at 467 mg a.i/L after 48 hr by leaf disk assay relative to untreated control; format: functional; parameters: scale not given: the % may be the effect or the level left
Trichoplusia ni [10] = assay: Antifeedant activity against third-instar larval stage of Trichoplusia ni (cabbage looper) infested compound-treated leaf assessed as reduction in feeding damage at 467 mg a.i/L after 48 hr by leaf disk assay relative to untreated control; format: functional; parameters: scale not given: the % may be the effect or the level left
Helicoverpa zea [11] = assay: Antifeedant activity against third-instar larval stage of Helicoverpa zea (corn earworm) infested compound-treated leaf assessed as time required to stop feeding at 467 mg a.i/L after 48 hr by leaf disk assay (reference value: > 2880 min); format: functional
Plutella xylostella [12] = assay: Antifeedant activity against third-instar larval stage of Plutella xylostella (diamondback moth) infested compound-treated leaf assessed as time required to stop feeding at 467 mg a.i/L after 48 hr by leaf disk assay (reference value: > 2880 min); format: functional
Plutella xylostella [13] = assay: Antifeedant activity against third-instar larval stage of Plutella xylostella (diamondback moth) infested compound-treated leaf assessed as reduction in feeding damage at 467 mg a.i/L after 48 hr by leaf disk assay relative to untreated control; format: functional; parameters: scale not given: the % may be the effect or the level left
Trichoplusia ni [14] = assay: Antifeedant activity against third-instar larval stage of Trichoplusia ni (cabbage looper) infested compound-treated leaf assessed as time required to stop feeding at 467 mg a.i/L after 48 hr by leaf disk assay (reference value: > 2880 min); format: functional
Spodoptera exigua [15] = assay: Antifeedant activity against third-instar larval stage of Spodoptera exigua infested compound-treated leaf assessed as time required to stop feeding at 467 mg a.i/L after 48 hr by leaf disk assay (reference value: > 2880 min); format: functional
Helicoverpa zea [16] = assay: Antifeedant activity against third-instar larval stage of Helicoverpa zea (corn earworm) infested compound-treated leaf assessed as reduction in feeding damage at 467 mg a.i/L after 48 hr by leaf disk assay relative to untreated control; format: functional; parameters: scale not given: the % may be the effect or the level left
Trichoplusia ni [17] = assay: Antifeedant activity against third-instar larval stage of Trichoplusia ni (cabbage looper) infested compound-treated leaf assessed as reduction in feeding damage at 124 mg a.i/L after 48 hr by leaf disk assay relative to untreated control; format: functional; parameters: scale not given: the % may be the effect or the level left
Plutella xylostella [18] = assay: Antifeedant activity against third-instar larval stage of Plutella xylostella (diamondback moth) infested compound-treated leaf assessed as reduction in feeding damage at 124 mg a.i/L after 48 hr by leaf disk assay relative to untreated control; format: functional; parameters: scale not given: the % may be the effect or the level left
Plutella xylostella [19] = assay: Antifeedant activity against third-instar larval stage of Plutella xylostella (diamondback moth) infested compound-treated leaf assessed as time required to stop feeding at 124 mg a.i/L after 48 hr by leaf disk assay (reference value: > 2880 min); format: functional
Helicoverpa zea [20] = assay: Antifeedant activity against third-instar larval stage of Helicoverpa zea (corn earworm) infested compound-treated leaf assessed as time required to stop feeding at 124 mg a.i/L after 48 hr by leaf disk assay (reference value: > 2880 min); format: functional
Helicoverpa zea [21] = assay: Antifeedant activity against third-instar larval stage of Helicoverpa zea (corn earworm) infested compound-treated leaf assessed as reduction in feeding damage at 124 mg a.i/L after 48 hr by leaf disk assay relative to untreated control; format: functional; parameters: scale not given: the % may be the effect or the level left
Spodoptera exigua [22] = assay: Antifeedant activity against third-instar larval stage of Spodoptera exigua infested compound-treated leaf assessed as reduction in feeding damage at 124 mg a.i/L after 48 hr by leaf disk assay relative to untreated control; format: functional; parameters: scale not given: the % may be the effect or the level left
Spodoptera exigua [23] = assay: Antifeedant activity against third-instar larval stage of Spodoptera exigua infested compound-treated leaf assessed as time required to stop feeding at 124 mg a.i/L after 48 hr by leaf disk assay (reference value: > 2880 min); format: functional
Trichoplusia ni [24] = assay: Antifeedant activity against third-instar larval stage of Trichoplusia ni (cabbage looper) infested compound-treated leaf assessed as time required to stop feeding at 124 mg a.i/L after 48 hr by leaf disk assay (reference value: > 2880 min); format: functional
Trichoplusia ni [25] = assay: Antifeedant activity against third-instar larval stage of Trichoplusia ni (cabbage looper) infested compound-treated leaf assessed as time required to stop feeding at 936 mg a.i/L after 48 hr by leaf disk assay (reference value: > 2880 min); format: functional, organism-based
Trichoplusia ni [26] = assay: Antifeedant activity against third-instar larval stage of Trichoplusia ni (cabbage looper) infested compound-treated leaf assessed as reduction in feeding damage at 936 mg a.i/L after 48 hr by leaf disk assay relative to untreated control; format: functional, organism-based; parameters: scale not given: the % may be the effect or the level left
Helicoverpa zea [27] = assay: Antifeedant activity against third-instar larval stage of Helicoverpa zea (corn earworm) infested compound-treated leaf assessed as reduction in feeding damage at 936 mg a.i/L after 48 hr by leaf disk assay relative to untreated control; format: functional, organism-based; parameters: scale not given: the % may be the effect or the level left
Plutella xylostella [28] = assay: Antifeedant activity against third-instar larval stage of Plutella xylostella (diamondback moth) infested compound-treated leaf assessed as time required to stop feeding at 936 mg a.i/L after 48 hr by leaf disk assay (reference value: > 2880 min); format: functional, organism-based
Helicoverpa zea [29] = assay: Antifeedant activity against third-instar larval stage of Helicoverpa zea (corn earworm) infested compound-treated leaf assessed as time required to stop feeding at 936 mg a.i/L after 48 hr by leaf disk assay (reference value: > 2880 min); format: functional, organism-based
Spodoptera exigua [30] = assay: Antifeedant activity against third-instar larval stage of Spodoptera exigua infested compound-treated leaf assessed as time required to stop feeding at 936 mg a.i/L after 48 hr by leaf disk assay (reference value: > 2880 min); format: functional, organism-based
Spodoptera exigua [31] = assay: Antifeedant activity against third-instar larval stage of Spodoptera exigua infested compound-treated leaf assessed as reduction in feeding damage at 936 mg a.i/L after 48 hr by leaf disk assay relative to untreated control; format: functional, organism-based; parameters: scale not given: the % may be the effect or the level left
Plutella xylostella [32] = assay: Antifeedant activity against third-instar larval stage of Plutella xylostella (diamondback moth) infested compound-treated leaf assessed as reduction in feeding damage at 936 mg a.i/L after 48 hr by leaf disk assay relative to untreated control; format: functional, organism-based; parameters: scale not given: the % may be the effect or the level left

## COC(=O)N(C(=O)N1CO[C@@]2(C(=O)OC)Cc3cc(Cl)ccc3C2=N1)c1ccc(OC(F)(F)F)cc1 [INDOXACARB]
Plutella xylostella [1]
  Time: 151.6 min
Trichoplusia ni [2]
  Time: 83.6 min
Spodoptera exigua [3]
  Time: 54.2 min
Spodoptera exigua [4]
  Activity: 95.4%
Plutella xylostella [5]
  Activity: 96.6%
Trichoplusia ni [6]
  Activity: 94.8%
Helicoverpa zea [7]
  Time: 77.2 min
Helicoverpa zea [8]
  Activity: 93.4%

## COc1cccc(C(=O)NN(C(=O)c2cc(C)cc(C)c2)C(C)(C)C)c1C [METHOXYFENOZIDE]
Spodoptera exigua [9]
  Activity: 72.9%
Trichoplusia ni [10]
  Activity: 81.6%
Helicoverpa zea [11]
  Time: 471.8 min
Plutella xylostella [12]
  Time: 514.5 min
Plutella xylostella [13]
  Activity: 96%
Trichoplusia ni [14]
  Time: 408.8 min
Spodoptera exigua [15]
  Time: 281.1 min
Helicoverpa zea [16]
  Activity: 93.3%

## CC1(C)[C@H](/C=C(\Cl)C(F)(F)F)[C@@H]1C(=O)O[C@@H](C#N)c1cccc(Oc2ccccc2)c1 [REL-LAMBDA CYHALOTHRIN]
Trichoplusia ni [17]
  Activity: 99.9%
Plutella xylostella [18]
  Activity: 99.6%
Plutella xylostella [19]
  Time: 8.1 min
Helicoverpa zea [20]
  Time: 7.3 min
Helicoverpa zea [21]
  Activity: 99.9%
Spodoptera exigua [22]
  Activity: 99.5%
Spodoptera exigua [23]
  Time: 5.4 min
Trichoplusia ni [24]
  Time: 9.3 min

## METAFLUMIZONE
Trichoplusia ni [25]
  TIME: 4.23 h
Trichoplusia ni [26]
  Activity: 87.6%
Helicoverpa zea [27]
  Activity: 57.9%
Plutella xylostella [28]
  TIME: 6.04 h
Helicoverpa zea [29]
  TIME: 10.3 h
Spodoptera exigua [30]
  TIME: 7.96 h
Spodoptera exigua [31]
  Activity: 47.4%
Plutella xylostella [32]
  Activity: 89.6%
